Experimental data taken from patent publication US20090291964A1, “Potentiators of Antibacterial Activity” (priority 2003, published 2009).
Where two headings read alike, the source gives them in different places.

Assays:
Assay type in all cases: cell-based
S. aureus ATCC 29213 [1] = test: MIC by NCCLS microdilution, antibacterial agents with and without EPI; settings: for MIC: Staphylococcus aureus; for MIC in the presence of 4X MEC of EPI, VX-710: VX-710 100 μg/ml; for MIC in the presence of 4X MEC of EPI, VX-853: VX-853 6.25 μg/ml; for MIC in the presence of 4X MEC of EPI, reserpine: reserpine 25 μg/ml
Description: 3% sterile laked horse blood (Quad Five, Ryegate, Mont.) was added to assays for E. faecalis and S. Pneumoniae. A final concentration of 1% DMSO was present in all assays. […]
A-106 and C-9 were tested at their respective MECs in combination with a variety of different classes of antibiotics against S. aureus ATCC 29213 (Table 2).

E. faecalis ATCC 29212 = test: MIC by NCCLS microdilution, EtBr/EPI with and without EPI; settings: Enterococcus faecalis, ATCC29212, read-out: MIC of EtBr without EPI
Description: (§1) 3% sterile laked horse blood (Quad Five, Ryegate, Mont.) was added to assays for E. faecalis and S. Pneumoniae. A final concentration of 1% DMSO was present in all assays.
(§2) EtBr is a general substrate for many different efflux pumps in bacteria. Markham et al., “Multiple Novel Inhibitors of the NorA Multidrug Transporter of Staphylococcus aureus”, Antimicrob. Agents Chemother. 43:2404-2408 (1999). Since EtBr is a non-specific DNA intercalator, the only known mechanism of resistance to EtBr is via efflux. Markham et al., “Multiple Novel Inhibitors of the NorA Multidrug Transporter of Staphylococcus aureus”, Antimicrob. Agents Chemother. 43:2404-2408 (1999).

S. pneumoniae ATCC 10015 = test: as above; settings: Streptococcus pneumoniae, ATCC10015, read-out: MIC of EtBr without EPI
Description: as §1, §2

[2] = tested on: S. aureus SA-1199B (NorA overproducing); test: MIC of fluoroquinolones with and without EPI; settings: Staphylococcus aureus
Description: (§3) A variety of strains may be used in these experiments, including, but not limited to, S. aureus ATCC 29213, E. faecalis ATCC 29212, and S. pneumoniae, S. aureus strains SA-1199, SA-1199B, SA-8325-4, and SA-K2068. S. aureus ATCC 29213, E. faecalis ATCC 29212, and S. pneumoniae ATCC 10015 were obtained from the American Type Culture Collection (Manassas, Va.). S. aureus strains SA-1199 (clinical isolate, susceptible), SA-1199B (SA-1199, NorA overproducing, also has A116E GrlA mutation), SA-8325-4 (NCTC 8325 cured of prophages), SA-K2068 (SA-8325-4, non-NorA multidrug efflux pump overproducing mutation) were obtained from Glenn Kaatz (Kaatz et al., “Identification and characterization of a novel efflux-related multidrug resistance phenotype in Staphylococcus aureus”, J. Antimicrob. Chemother. 50:833-838 (2002); 1993; Kaatz et al., “Phenothiazines and thioxanthenes inhibit multidrug efflux pump activity in Staphylococcus aureus”, Antimicrob. Agents Chemother. 47:719-726, Kaatz et al., “Efflux-mediated fluoroquinolone resistance in Staphylococcus aureus. Antimicrob. Agents Chemother.”, 37:1086-1094, 1993)).
as §1
(§4) Recent more hydrophobic fluoroquinolones such as gatifloxacin and moxifloxacin are less well recognized by NorA; however, recently one other pump in S. aureus has been described which also recognizes hydrophobic fluoroquinolones (Kaatz et al. 2002, supra). To investigate the potential of A-106 and C-9 to block the efflux of several fluoroquinolones in cells with constituitively over-expressed efflux pumps, we used S. aureus strains SA-1199B and K2068 (Table 3). […] Kaatz et al., “Phenothiazines and thioxanthenes inhibit multidrug efflux pump activity in Staphylococcus aureus”, Antimicrob. Agents Chemother. 47:719-726 (2003).

[3] = tested on: S. aureus SA-K2068 (non-NorA multidrug efflux pump overproducing); test: microbe, parasite or virus in culture; settings: Staphylococcus aureus
Description: as §3, §1, §4

[4] = tested on: S. aureus SA-1199 (clinical isolate, susceptible); test: MIC of fluoroquinolones with and without EPI; settings: Staphylococcus aureus, read-out: MIC of antibacterial agent, EPI none
Description: as §3, §1

S. aureus SA-8325-4 = test: MIC of fluoroquinolones with and without EPI; settings: Staphylococcus aureus, SA83254, read-out: MIC of antibacterial agent, EPI none
Description: as §3, §1

S. aureus ATCC 29213 [5] = test: Minimal effective concentration (MEC) of EPI for EtBr; settings: S. aureus ATCC 29213; lowest amount of EPI which produces the maximum effect on the MIC of ethidium bromide
Description: The MEC was determined as the minimal concentration of EPI that produced the maximal reduction in substrate MIC.
The minimum effective concentration (MEC) for inhibition of EtBr efflux was determined in S. aureus, E. faecalis and S. pneumoniae for A-106 and C-9; reserpine was used as a comparator (Table 1).

[6] = tested on: E. faecalis clinical isolates; test: MIC90 studies: fluoroquinolone susceptibility of clinical isolate panel with EPI; settings: Enterococcus faecalis, read-out: MIC, No EPI
Description: (§5) Susceptibility studies with large panels of resistant clinical isolates were performed at Focus Technologies, Herndon, Va. according to NCCLS protocols (National Committee for Clinical Laboratory Standards, supra).
(§6) To be useful in combination therapy, an EPI needs to substantially reduce the MIC of an antibiotic to within the range of clinical susceptibility. Because many different resistance mechanisms are often present in clinical isolates, including the likelihood of multiple target-based mutations in addition to efflux mutations, the barrier to antibiotic efficacy is much greater. […] Oxacillin and vancomycin MICs were also determined to identify which isolates were methicillin-resistant (S. aureus) and vancomycin-resistant (E. faecalis).

[7] = tested on: S. aureus clinical isolates; test: as above; settings: Staphylococcus aureus
Description: as §5, §6

[8] = ATCC29213, read-out: MIC of antibacterial agent, EPI none, S. aureus ATCC 29213, no EPI
[9] = ATCC29213, read-out: MIC, No EPI, antibacterial agent alone
[10] = read-out: MIC of antibacterial agent, EPI none
[11] = S. aureus ATCC 29213, EPIs used at the MEC, except VX-710 at 100 μg/ml
[12] = read-out: MIC of Gatifloxacin without EPI
[13] = ATCC29213, antibacterial agent alone, read-out: MIC, No EPI

SMILES: CC[n+]1c(-c2ccccc2)c2cc(N)ccc2c2ccc(N)cc21 [EtBr, Ethidium bromide]
- MIC of EtBr without EPI (S. aureus ATCC 29213 [1]; S. aureus ATCC 29213): 6.2 µg/mL
- MIC (S. aureus ATCC 29213 [1]; ATCC29213, read-out: MIC of EtBr without EPI, S. aureus ATCC 29213): 6.3 µg/mL
- MIC (S. aureus ATCC 29213 [1]; [8]): 6.2 µg/mL
- MIC (S. aureus ATCC 29213 [1]; [9]): 6.2 µg/mL
- MIC in the presence of 4X MEC of EPI, VX-710 (S. aureus ATCC 29213 [1]): 0.2 µg/mL
- MIC in the presence of 4X MEC of EPI, VX-853 (S. aureus ATCC 29213 [1]): 1.6 µg/mL
- MIC in the presence of 4X MEC of EPI, reserpine (S. aureus ATCC 29213 [1]): 1.6 µg/mL
- MIC (E. faecalis ATCC 29212): 6.3 µg/mL
- MIC (S. pneumoniae ATCC 10015): 2 µg/mL
- MIC [2, 10]: 25 µg/mL
- MIC [3, 10]: 12.5 µg/mL
- MIC [4]: 6.2 µg/mL
- MIC (S. aureus SA-8325-4): 3.1 µg/mL

SMILES: COc1cc(C(=O)C(=O)N2CCCCC2C(=O)OC(CCCc2ccccc2)CCCc2cccnc2)cc(OC)c1OC (stereo not drawn) [VRT-010367]
- MIC of EPI (S. aureus ATCC 29213 [1]; S. aureus ATCC 29213, EPI alone): >50 µg/mL
- Fold-reduction in EtBr MIC (S. aureus ATCC 29213 [1]; [11]): 2
- MIC of EtBr with EPI (S. aureus ATCC 29213 [1]; [11]): 3.1 µg/mL
- MEC of EPI (S. aureus ATCC 29213 [5]): 1.6 µg/mL

SMILES: COc1c(N2CCNC(C)C2)c(F)cc2c(=O)c(C(=O)O)cn(C3CC3)c12 (stereo not drawn) [gatifloxacin, reference compound]
- MIC (S. aureus ATCC 29213 [1]; ATCC29213, read-out: MIC of Gatifloxacin without EPI, S. aureus ATCC 29213 (Table 4)): 0.125 µg/mL
- MIC (S. aureus ATCC 29213 [1]; [8]): 0.063 µg/mL
- MIC (S. aureus ATCC 29213 [1]; [9]): 0.125 µg/mL
- MIC in the presence of 4X MEC of EPI, VX-710 (S. aureus ATCC 29213 [1]): 0.125 µg/mL
- MIC in the presence of 4X MEC of EPI, VX-853 (S. aureus ATCC 29213 [1]): 0.125 µg/mL
- MIC in the presence of 4X MEC of EPI, reserpine (S. aureus ATCC 29213 [1]): 0.125 µg/mL
- MIC [2, 12]: 0.5 µg/mL
- MIC [2, 10]: 0.5 µg/mL
- MIC [3, 12]: 1 µg/mL
- MIC [3, 10]: 1 µg/mL
- MIC [4]: 0.063 µg/mL
- MIC (S. aureus SA-8325-4): 0.125 µg/mL

SMILES: C[C@H]1COc2c(N3CCN(C)CC3)c(F)cc3c(=O)c(C(=O)O)cn1c23 [levofloxacin]
- MIC (S. aureus ATCC 29213 [1]; [13]): 0.25 µg/mL
- MIC in the presence of 4X MEC of EPI, VX-710 (S. aureus ATCC 29213 [1]): 0.125 µg/mL
- MIC in the presence of 4X MEC of EPI, VX-853 (S. aureus ATCC 29213 [1]): 0.125 µg/mL
- MIC in the presence of 4X MEC of EPI, reserpine (S. aureus ATCC 29213 [1]): 0.125 µg/mL
- MIC [4]: 0.125 µg/mL
- MIC (S. aureus SA-8325-4): 0.25 µg/mL

SMILES: CCn1cc(C(=O)O)c(=O)c2cc(F)c(N3CCNCC3)cc21 [norfloxacin, reference compound]
- MIC (S. aureus ATCC 29213 [1]; [13]): 1 µg/mL
- MIC (S. aureus ATCC 29213 [1]; [8]): 0.5 µg/mL
- MIC in the presence of 4X MEC of EPI, VX-710 (S. aureus ATCC 29213 [1]): 0.25 µg/mL
- MIC in the presence of 4X MEC of EPI, VX-853 (S. aureus ATCC 29213 [1]): 0.5 µg/mL
- MIC in the presence of 4X MEC of EPI, reserpine (S. aureus ATCC 29213 [1]): 0.5 µg/mL
- MIC [3, 10]: 8 µg/mL
- MIC [4]: 0.5 µg/mL
- MIC (S. aureus SA-8325-4): 1 µg/mL
- MIC ([6]; E. faecalis clinical isolate 1): 4 µg/mL
- MIC ([6]; E. faecalis clinical isolate 2): 4 µg/mL
- MIC ([6]; E. faecalis clinical isolate 3): 128 µg/mL
- MIC ([6]; E. faecalis clinical isolate 4): 128 µg/mL
- MIC ([6]; E. faecalis clinical isolate 5): 64 µg/mL
- MIC ([6]; E. faecalis clinical isolate 6): 2 µg/mL
- MIC ([6]; E. faecalis clinical isolate 7): 2 µg/mL
- MIC ([6]; E. faecalis clinical isolate 8): 128 µg/mL
- MIC ([6]; E. faecalis clinical isolate 9): 4 µg/mL
- MIC ([6]; E. faecalis clinical isolate 10): 64 µg/mL
- MIC ([6]; E. faecalis clinical isolate 11): 128 µg/mL
- MIC ([6]; E. faecalis clinical isolate 12): 2 µg/mL
- MIC ([6]; E. faecalis clinical isolate 13): 2 µg/mL
- MIC ([6]; E. faecalis clinical isolate 14): 4 µg/mL
- MIC ([6]; E. faecalis clinical isolate 15): 4 µg/mL
- MIC ([6]; E. faecalis clinical isolate 16): 4 µg/mL
- MIC ([6]; E. faecalis clinical isolate 17): 4 µg/mL
- MIC ([6]; E. faecalis clinical isolate 18): 128 µg/mL
- MIC ([6]; E. faecalis clinical isolate 19): 4 µg/mL
- MIC ([6]; E. faecalis clinical isolate 20): 4 µg/mL
- MIC ([6]; E. faecalis clinical isolate 21): 2 µg/mL
- MIC ([6]; E. faecalis clinical isolate 22): 128 µg/mL
- MIC ([6]; E. faecalis clinical isolate 23): 64 µg/mL
- MIC ([6]; E. faecalis clinical isolate 24): > 256 µg/mL
- MIC ([6]; E. faecalis clinical isolate 25): 128 µg/mL
- MIC ([6]; E. faecalis clinical isolate 26): > 256 µg/mL
- MIC ([7]; S. aureus clinical isolate 1): 16 µg/mL
- MIC ([7]; S. aureus clinical isolate 2): 1 µg/mL
- MIC ([7]; S. aureus clinical isolate 3): 1 µg/mL
- MIC ([7]; S. aureus clinical isolate 4): 256 µg/mL
- MIC ([7]; S. aureus clinical isolate 5): 1 µg/mL
- MIC ([7]; S. aureus clinical isolate 6): 32 µg/mL
- MIC ([7]; S. aureus clinical isolate 7): 2 µg/mL
- MIC ([7]; S. aureus clinical isolate 8): 4 µg/mL
- MIC ([7]; S. aureus clinical isolate 9): 1 µg/mL
- MIC ([7]; S. aureus clinical isolate 10): 64 µg/mL
- MIC ([7]; S. aureus clinical isolate 11): 64 µg/mL
- MIC ([7]; S. aureus clinical isolate 12): 1 µg/mL
- MIC ([7]; S. aureus clinical isolate 13): 256 µg/mL
- MIC ([7]; S. aureus clinical isolate 14): 256 µg/mL
- MIC ([7]; S. aureus clinical isolate 15): 256 µg/mL
